Reference: patent publication US11731946B2, “Broad spectrum antivirulence, anti-persistence compounds” (priority 2017, dated 2023)

How the values were obtained:
MvfR regulon [1] = test: Quantification of pyocyanin (OD520nm of chloroform-extracted cultures); format: cell-based, P. aeruginosa; conditions: for activity at 1 µM: read-out: pyocyanin @1 uM (%), compound at 1 uM; for activity at 10 µM: read-out: pyocyanin @10 uM (%), compound at 10 uM; for activity at 50 µM: read-out: pyocyanin @50 uM (%), compound at 50 uM; for pyocyanin @50 uM (%): compound at 50 uM
MvfR regulon [2] = test: pqsA gene expression (pqsA-GFP reporter); format: cell-based, P. aeruginosa; conditions: for activity at 10 µM: read-out: pqsA @10 uM (%), compound at 10 uM; for activity at 50 µM: read-out: pqsA @50 uM (%), compound at 50 uM
Procedure: Experiments were performed to identify compounds that inhibit the MvfR regulon without altering growth, ultimately attenuating P. aeruginosa infection. MvfR is a LysR-type transcriptional regulator that directs HAQs synthesis, including that of its ligands, 4-hydroxy-2-heptylquinoline (HHQ) and 3,4-dihydroxy-2-heptylquinoline (PQS).
MvfR promotes the production of HAQs by binding to and activating the pqs operon, which encodes enzymes for HAQ synthesis. Anthranilic acid (AA), derived from the phnAB, kynABU, and trpEG pathways, is the precursor for HAQs. pqsA encodes an anthranilate-coenzyme A ligase, which activates anthranilic acid and catalyzes the first committed step to HAQ production. The exact roles of PqsB and PqsC are unknown, though both show homology to acyl-carrier-proteins and both are required for HHQ and PQS production. […] The final gene of the operon, pqsE encodes for a putative hydrolase, and while the protein is not required for the synthesis of HAQs, it is necessary for pyocyanin production.
Nanomolar levels of most of these MvfR antagonists impeded the activity of MvfR and in consequence the MvfR virulence regulated ACRP functions, including: (1) the production of the important pro-acute P. aeruginosa virulence factor pyocyanin (see e.g., FIG. 9A) the efficacy of two of these potent inhibitors, D57 and D88, was also confirmed by testing many different MDR P. aeruginosa clinical isolates (see e.g., FIG. 11A-11B), providing further confidence of their inhibitory potency; (2) the expression of the genes that encode the enzymes catalyzing the synthesis of both pro-acute and pro-persistence MvfR-regulated virulence molecules, 4-hydroxyl-2-alkyl-quinolines (HAQs) and 2-aminoacetophenon (2-AA), as assessed by pqsAGFP reporter gene expression (see e.g., FIG. 9B) and HAQ production showing the levels of MvfR inducers/ligands HHQ and PQS as well as of the molecules critical for biofilm and Antibiotic tolerant/persiters cells formation HQNO and 2-AA (see e.g., FIG. 9C); (3) AT/P cell formation (see e.g., FIGS. 11A, 12A); (4) biofilm formation (see e.g., FIG. 12B); and (5) biofilm dispersal of preformed biofilm by potentiating antibiotic action (see e.g., FIG. 11B).

[3] = Pseudomonas aeruginosa, read-out: IC50 pyocyanin (μM)

| Compound | activity at 50 µM (MvfR regulon [1]; Pseudomonas aeruginosa) [%] | activity at 50 µM (MvfR regulon [2]; Pseudomonas aeruginosa) [%] | further results |
| --- | --- | --- | --- |
| N#Cc1ccc(NC(=O)C[C@H](Nc2ccc(Oc3ccccc3)cc2)C(F)(F)F)cc1 (racemic) [Compound 108] | 91 | 88.4 | activity at 1 µM (MvfR regulon [1]; Pseudomonas aeruginosa): 91.9%; activity at 10 µM (MvfR regulon [1]; Pseudomonas aeruginosa): 76.8%; activity at 10 µM (MvfR regulon [2]; Pseudomonas aeruginosa): 87% |
| O=C(Nc1ccc(Oc2ccccc2)cc1)[C@@H](F)C(=O)Nc1ccc(C(F)(F)F)cc1 (racemic) [Compound 115] | 7.08 | 1.75 | activity at 1 µM (MvfR regulon [1]; Pseudomonas aeruginosa): 27.1%; activity at 10 µM (MvfR regulon [1]; Pseudomonas aeruginosa): 11.4%; activity at 10 µM (MvfR regulon [2]; Pseudomonas aeruginosa): 1.05% |
| Cc1cc(F)ccc1NC(C)C(=O)Nc1ccc(C#N)cc1 (stereo not shown) [Compound 13] |  |  | pyocyanin @50 uM (%) (MvfR regulon [1]; listed as D1): 101.56%; pqsA @50 uM (%) (MvfR regulon [2]; compound at 50 uM, listed as D1): 88.58% |
| Cc1cc(F)ccc1NCC(=O)Nc1ccccc1Br [Compound 14] | 101 | 96.2 |  |
| CCc1ccccc1NCC(=O)Nc1ccc(C#N)cc1 [Compound 15] | 97.3 | 92 |  |
| N#Cc1ccc(NC(=O)CNc2ccc(F)cc2F)cc1 [Compound 16] | 89.1 | 56.3 |  |
| Cc1cc(F)ccc1NCC(=O)Nc1ccc(N2CCOCC2)cc1 [Compound 17] | 102 | 99.8 |  |
| N#Cc1ccc(NC(=O)CNc2cccc(F)c2)cc1 [Compound 18] | 91.3 | 68 |  |
| Cc1cc(F)ccc1NCC(=O)Nc1ccc(Br)cc1C [Compound 19] | 88.7 | 70 |  |
| CC(=O)c1ccc(NC(=O)CNc2ccc(F)cc2C)cc1 [Compound 20] | 102 | 97.7 |  |
| Cc1cc(F)ccc1NCC(=O)Nc1ccc(N2CCCC2=O)cc1 [Compound 21] | 107 | 105 |  |
| Cc1cc(F)ccc1NCC(=O)Nc1c(F)cccc1F [Compound 22] | 89.9 | 89.2 |  |
| CNC(=O)NC(=O)CNc1ccc(F)cc1C [Compound 23] | 101 | 97 |  |
| Cc1ccc(NC(=O)CNc2ccc(F)cc2C)c(Br)c1 [Compound 24] | 108 | 92.3 |  |
| Cc1cc(F)ccc1NCC(=O)Nc1cccc(C#N)c1 [Compound 25] | 100 | 90.2 |  |
| Cc1cc(F)ccc1NCC(=O)Nc1cccc([N+](=O)[O-])c1 [Compound 26] | 85.2 | 76.5 |  |
| COc1ccc(NC(=O)CNc2ccc(F)cc2C)cc1 [Compound 27] | 102 | 86.9 |  |
| N#Cc1ccc(NC(=O)CNc2ccc(Cl)cc2)cc1 [Compound 28] | 43.2 | 17.7 | IC50 (MvfR regulon [1]; [3]): 20.4 µM; IC50 (MvfR regulon [2]; Pseudomonas aeruginosa, read-out: IC50 pqsA (μM)): 24.6 µM |
| Cc1cc(F)ccc1NCC(=O)NCC(F)(F)F [Compound 29] | 110 | 70 |  |
| Cc1ccc(F)cc1NCC(=O)Nc1ccc(C#N)cc1 [Compound 30] | 68.5 | 28.1 |  |
| Cc1cc(F)ccc1NCC(=O)Nc1ccc(C(=O)N(C)C)cc1 [Compound 31] | 109 | 99.8 |  |
| Cc1ccc(NCC(=O)N(C)c2ccccc2)c(C)c1 [Compound 32] | 111 | 88 |  |
| Cc1ccc(NC(=O)CNc2ccc(F)cc2C)c(C)c1 [Compound 33] | 112 | 87.3 |  |
| Cc1cc(F)ccc1NCC(=O)Nc1cccc(Cl)c1 [Compound 34] | 96.1 | 70.9 |  |

| Compound | activity at 50 µM (MvfR regulon [1]; Pseudomonas aeruginosa) [%] | activity at 50 µM (MvfR regulon [2]; Pseudomonas aeruginosa) [%] | further results |
| --- | --- | --- | --- |
| Cc1cc(F)ccc1NCC(=O)NC1CC1 [Compound 35] | 107 | 92.5 |  |
| N#Cc1ccc(NCC(=O)Nc2ccc(F)cc2)cc1 [Compound 36] | 59.1 | 25.5 |  |
| N#Cc1ccc(NC(=O)CNc2ccccc2F)cc1 [Compound 37] | 97.3 | 84 |  |
| Cc1ccccc1NCC(=O)Nc1ccccc1 [Compound 38] | 102 | 95.4 |  |
| CC(=O)Nc1cccc(NCC(=O)Nc2ccc(C#N)cc2)c1C [Compound 39] | 93.4 | 99.5 |  |
| Cc1ccc(NCC(=O)Nc2ccc(C#N)cc2)cc1F [Compound 40] | 59.5 | 42 |  |
| Cc1ccc(NCC(=O)Nc2ccccc2)c(C)c1 [Compound 41] | 94.5 | 92.8 |  |
| CC(=O)c1ccccc1NC(=O)CNc1ccc(F)cc1C [Compound 42] | 91.4 | 94.2 |  |
| Cc1cc(NC(=O)CNc2ccc(F)cc2C)ccc1Br [Compound 43] | 68.5 | 47 |  |
| COc1cccc(NC(=O)CNc2ccc(F)cc2C)c1 [Compound 44] | 92.2 | 93.7 |  |
| CC(C)c1ccc(NCC(=O)Nc2ccc(C#N)cc2)cc1 [Compound 45] | 59.1 | 52.8 |  |
| N#Cc1ccc(NC(=O)CC(=O)Nc2ccccc2Br)cc1 [Compound 55] | 86.3 |  | activity at 1 µM (MvfR regulon [1]; Pseudomonas aeruginosa): 99%; activity at 10 µM (MvfR regulon [1]; Pseudomonas aeruginosa): 70.7%; activity at 10 µM (MvfR regulon [2]; Pseudomonas aeruginosa): 94% |
| N#Cc1ccc(NC(=O)CC(=O)Nc2cccc(Br)c2)cc1 [Compound 56] | 17.2 |  | activity at 1 µM (MvfR regulon [1]; Pseudomonas aeruginosa): 79.9%; activity at 10 µM (MvfR regulon [1]; Pseudomonas aeruginosa): 41.4%; activity at 10 µM (MvfR regulon [2]; Pseudomonas aeruginosa): 64.2% |
| N#Cc1ccc(NC(=O)CC(=O)Nc2ccc([N+](=O)[O-])cc2)cc1 [Compound 66] |  |  | pyocyanin @1 uM (%) (MvfR regulon [1]; compound at 1 uM, listed as D51P): 61.28%; pyocyanin @10 uM (%) (MvfR regulon [1]; compound at 10 uM, listed as D51P): 24.86%; pyocyanin @50 uM (%) (MvfR regulon [1]; listed as D51P): 4.00%; IC50 (MvfR regulon [1]; read-out: IC50 pyocyanin): 0.84 µM; activity at 10 µM (MvfR regulon [2]; Pseudomonas aeruginosa): 1.51% |
| O=C(CC(=O)Nc1ccc(Oc2ccccc2)cc1)Nc1ccc(I)cc1 [Compound 74] | 71.8 | 81.2 | activity at 10 µM (MvfR regulon [2]; Pseudomonas aeruginosa): 86% |
| Nc1cc([N+](=O)[O-])ccc1NC(=O)CC(=O)Nc1ccc(Oc2ccccc2)cc1 [Compound 75] | 6.13 |  | activity at 10 µM (MvfR regulon [2]; Pseudomonas aeruginosa): 9.83% |
| O=C(CC(=O)Nc1ccc(Oc2ccccc2)cc1)Nc1ccc(Br)cc1 [Compound 79] | 47.7 | 60.5 | activity at 10 µM (MvfR regulon [2]; Pseudomonas aeruginosa): 64.5% |
| O=C(CC(=O)Nc1ccc(Oc2ccccc2)cc1)Nc1ccc(Cl)cc1 [Compound 82] | 26 |  | IC50 (MvfR regulon [1]; [3]): 0.09 µM; activity at 1 µM (MvfR regulon [1]; Pseudomonas aeruginosa): 40.3%; activity at 10 µM (MvfR regulon [1]; Pseudomonas aeruginosa): 39.9%; activity at 10 µM (MvfR regulon [2]; Pseudomonas aeruginosa): 28.8% |
| O=C(CC(=O)Nc1ccc(Oc2ccccc2)cc1)Nc1ccc(F)cc1 [Compound 83] | 33.5 |  | IC50 (MvfR regulon [1]; [3]): 0.83 µM; activity at 1 µM (MvfR regulon [1]; Pseudomonas aeruginosa): 44.7%; activity at 10 µM (MvfR regulon [1]; Pseudomonas aeruginosa): 41.3%; activity at 10 µM (MvfR regulon [2]; Pseudomonas aeruginosa): 27.7% |
| N#Cc1ccc(NC(=O)CC(=O)Nc2ccc(C(F)(F)F)cc2)cc1 [Compound 84] | 6.1 |  | IC50 (MvfR regulon [1]; [3]): 0.45 µM; activity at 1 µM (MvfR regulon [1]; Pseudomonas aeruginosa): 46.8%; activity at 10 µM (MvfR regulon [1]; Pseudomonas aeruginosa): 6.98%; activity at 10 µM (MvfR regulon [2]; Pseudomonas aeruginosa): 6.98% |
| Cc1cccc(NC(=O)CC(=O)Nc2ccc(C#N)cc2)c1 [Compound 85] | 49.7 |  | activity at 1 µM (MvfR regulon [1]; Pseudomonas aeruginosa): 94%; activity at 10 µM (MvfR regulon [1]; Pseudomonas aeruginosa): 75.3%; activity at 10 µM (MvfR regulon [2]; Pseudomonas aeruginosa): 84.8% |
| N#Cc1ccc(NC(=O)CC(=O)Nc2cccc(Cl)c2)cc1 [Compound 86] | 12.5 |  | IC50 (MvfR regulon [1]; [3]): 1.54 µM; activity at 1 µM (MvfR regulon [1]; Pseudomonas aeruginosa): 83.2%; activity at 10 µM (MvfR regulon [1]; Pseudomonas aeruginosa): 45.4%; activity at 10 µM (MvfR regulon [2]; Pseudomonas aeruginosa): 59.8% |
| N#Cc1ccc(NC(=O)CC(=O)Nc2cccc(F)c2)cc1 [Compound 87] | 30.2 |  | activity at 1 µM (MvfR regulon [1]; Pseudomonas aeruginosa): 94.6%; activity at 10 µM (MvfR regulon [1]; Pseudomonas aeruginosa): 65.5%; activity at 10 µM (MvfR regulon [2]; Pseudomonas aeruginosa): 77.8% |
